According to patent publication US10508109B2 (priority 2015, dated 2019):
Counter-ions that a name gives are not always drawn. Like-named read-outs stand apart in the source and are kept apart here.

Assays:
HCT-116 = assay: Cell-based assay, anti-proliferative activity (Cell Counting Kit-8, 72 hours); conditions: Homo sapiens, read-out: IC50 (μM) HCT-116
Outline: (§1)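 Growth inhibition is read by Cell Counting Kit-8 after three days of compound treatment. Test concentrations span 0, 1.5625, 3.125, 6.25, 12.5, 25, 50 and 100 micro-M, and IC50 serves as the anti-proliferative measure.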

CCD-18Co = assay: as above; conditions: Homo sapiens, read-out: IC50 (μM) CCD-18Co
Outline: as §1

PC14 = assay: as above; conditions: Homo sapiens, read-out: IC50 (μM) PC14
Outline: as §1

HFL1 = assay: as above; conditions: Homo sapiens, read-out: IC50 (μM) HFL1
Outline: as §1

A549 = assay: as above; conditions: Homo sapiens, read-out: IC50 (μM) A549
Outline: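 IC50 values come from growth read-outs taken after the cells' exposure to each candidate inhibitor. Cells had been plated in 96-well microtiter plates beforehand.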

SUV39H2 = SUV39H2 (Homo sapiens (Human), UniProt Q9H5I1); conditions: read-out: IC50 (μM) Suv 39H2 assay; enzyme assay
Chain of SUV39H2 (Q9H5I1 whole entry): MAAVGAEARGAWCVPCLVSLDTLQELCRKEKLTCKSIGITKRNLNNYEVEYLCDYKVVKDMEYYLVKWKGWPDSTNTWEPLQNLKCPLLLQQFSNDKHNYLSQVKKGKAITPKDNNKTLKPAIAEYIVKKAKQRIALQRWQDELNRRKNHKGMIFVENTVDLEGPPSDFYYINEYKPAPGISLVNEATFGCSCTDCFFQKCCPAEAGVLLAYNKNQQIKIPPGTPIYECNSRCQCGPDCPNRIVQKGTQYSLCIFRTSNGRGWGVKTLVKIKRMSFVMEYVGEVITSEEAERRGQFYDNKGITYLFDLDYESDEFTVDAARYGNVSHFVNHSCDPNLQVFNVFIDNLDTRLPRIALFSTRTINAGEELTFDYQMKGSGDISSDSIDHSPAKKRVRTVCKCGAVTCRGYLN

[1] = HCT-116 cells, Cell Counting Kit-8, 72 hours
[2] = CCD-18Co cells, Cell Counting Kit-8, 72 hours
[3] = PC-14, PC14 cells, Cell Counting Kit-8, 72 hours
[4] = HFL1 cells, Cell Counting Kit-8, 72 hours
[5] = A549 cells, Cell Counting Kit-8, 72 hours
[6] = HCT-116 cells, 72 hours, Cell Counting Kit-8
[7] = CCD-18Co cells, 72 hours, Cell Counting Kit-8
[8] = PC-14, PC14 cells, 72 hours, Cell Counting Kit-8
[9] = HFL1 cells, 72 hours, Cell Counting Kit-8
[10] = A549 cells, 72 hours, Cell Counting Kit-8

## COc1cc(OC)c(-c2cn3ccc(N4CCCN(S(C)(=O)=O)CC4)cc3n2)cc1Cl [Example 201, 2-(5-chloro-2,4-dimethoxyphenyl)-7-[4-(methylsulfonyl)-1,4-diazepan-1-yl]imidazo[1,2-a]pyridine]
HCT-116; [1]
  IC50: 2.7 µM
CCD-18Co; [2]
  IC50: 3.2 µM
PC14; [3]
  IC50: 1.9 µM
HFL1; [4]
  IC50: 3 µM
A549; [5]
  IC50: 2.2 µM
SUV39H2
  IC50: 0.0064 µM

## COc1cc(OC)c(-c2cn3ccc(N4CCN(C(=O)OC(C)(C)C)CC4)cc3n2)cc1Cl [Example 232, tert-butyl 4-[2-(5-chloro-2,4-dimethoxyphenyl)imidazo[1,2-a]pyridin-7-yl]piperazine-1-carboxylate]
HCT-116; [6]
  IC50: 1.7 µM
CCD-18Co; [7]
  IC50: 1.5 µM
PC14; [8]
  IC50: 0.73 µM
HFL1; [9]
  IC50: 1.1 µM
A549; [10]
  IC50: 1.5 µM
SUV39H2
  IC50: 0.0291 µM

## CCOP(=O)(CCN1CCCN(c2ccn3cc(-c4cc(Cl)c(OC)cc4OCCCN(C)C)nc3c2)CC1)OCC [Example 214, diethyl (2-(4-(2-(5-chloro-2-(3-(dimethylamino)propoxy)-4-methoxyphenyl)-imidazo[1,2-a]pyridin-7-yl)-1,4-diazepan-1-yl)ethyl)phosphonate]
HCT-116; [6]
  IC50: 10 µM
CCD-18Co; [7]
  IC50: 10 µM
PC14; [8]
  IC50: 10 µM
HFL1; [9]
  IC50: 10 µM
A549; [10]
  IC50: 10 µM
SUV39H2
  IC50: 0.0106 µM

## COc1cc(OC)c(-c2cn3ccc(OC4CCN(S(=O)(=O)c5nccn5C)CC4)cc3n2)cc1Cl [Example 288, 2-(5-chloro-2,4-dimethoxyphenyl)-7-((1-((1-methyl-1H-imidazol-2-yl)sulfonyl)piperidin-4-yl)oxy)imidazo[1,2-a]pyridine]
HCT-116; [6]
  IC50: 0.98 µM
CCD-18Co; [7]
  IC50: 1.5 µM
PC14; [8]
  IC50: 1.2 µM
HFL1; [9]
  IC50: 1.7 µM
A549; [10]
  IC50: 0.8 µM
SUV39H2
  IC50: 0.0928 µM

## CCS(=O)(=O)N1CCN(c2ccn3cc(-c4cc(Cl)c(OC)cc4OCCCN(C)C)nc3c2)CC1 [Example 199, 3-(4-chloro-2-(7-(4-(ethylsulfonyl)piperazin-1-yl)imidazo[1,2-a]pyridin-2-yl)-5-methoxyphenoxy)-N,N-dimethylpropan-1-amine]
HCT-116; [1]
  IC50: 6.4 µM
CCD-18Co; [2]
  IC50: 3.9 µM
PC14; [3]
  IC50: 3 µM
HFL1; [4]
  IC50: 4.8 µM
A549; [5]
  IC50: 5.2 µM
SUV39H2
  IC50: 0.0168 µM

## COC(=O)N1CCN(c2ccn3cc(-c4cc(Cl)c(OC)cc4OC)nc3n2)CC1 [Example 159, methyl 4-(2-(5-chloro-2,4-dimethoxyphenyl)imidazo[1,2-a]pyrimidin-7-yl)piperazine-1-carboxylate]
HCT-116; [1]
  IC50: 3.2 µM
CCD-18Co; [2]
  IC50: 3.7 µM
PC14; [3]
  IC50: 4.7 µM
HFL1; [4]
  IC50: 3.4 µM
A549; [5]
  IC50: 2.7 µM
SUV39H2
  IC50: 0.0157 µM

## COc1cc(OC)c(-c2cn3ccc(N4CCCN(P(=O)(OC)OC)CC4)cc3n2)cc1Cl [Example 207, dimethyl (4-(2-(5-chloro-2,4-dimethoxyphenyl)imidazo[1,2-a]pyridin-7-yl)-1,4-diazepan-1-yl)phosphonate]
HCT-116; HCT-116, 72 h
  IC50: 10 µM
CCD-18Co; CCD-18Co, 72 h
  IC50: 10 µM
PC14; PC-14, 72 h
  IC50: 10 µM
HFL1; HFL1, 72 h
  IC50: 10 µM
A549; A549, 72 h
  IC50: 10 µM
SUV39H2
  IC50: 0.0113 µM

## COc1cc(OC)c(-c2cn3ccc(N4CCC(NS(=O)(=O)C5CC5)CC4)cc3n2)cc1Cl [Example 126, N-{1-[2-(5-chloro-2,4-dimethoxyphenyl)imidazo[1,2-a]pyridin-7-yl]piperidin-4-yl}cyclopropanesulfonamide]
HCT-116; [1]
  IC50: 1.9 µM
CCD-18Co; [2]
  IC50: 1.8 µM
PC14; [3]
  IC50: 3.1 µM
HFL1; [4]
  IC50: 1.4 µM
A549; [5]
  IC50: 2.1 µM
SUV39H2
  IC50: 0.014 µM

## COc1cc(OC)c(-c2cn3ccc(N4CCCNCC4)cc3n2)cc1Cl [Example 189, 2-(5-chloro-2,4-dimethoxyphenyl)-7-(1,4-diazepan-1-yl)imidazo[1,2-a]pyridine]
HCT-116; [1]
  IC50: 3 µM
CCD-18Co; [2]
  IC50: 6.3 µM
PC14; [3]
  IC50: 2.9 µM
HFL1; [4]
  IC50: 2 µM
A549; [5]
  IC50: 3.5 µM
SUV39H2
  IC50: 0.00433 µM

## CCc1cc(OC)c(Cl)cc1-c1cn2ccc(N3CCNCC3)cc2n1 [Example 260, 2-(5-chloro-2-ethyl-4-methoxyphenyl)-7-(piperazin-1-yl)imidazo-[1,2-a]pyridine]
HCT-116; [6]
  IC50: 3.4 µM
CCD-18Co; [7]
  IC50: 3.5 µM
PC14; [8]
  IC50: 3.4 µM
HFL1; [9]
  IC50: 3.6 µM
A549; [10]
  IC50: 6.1 µM
SUV39H2
  IC50: 0.0344 µM

## COc1cc(OCCCN(C)C)c(-c2cn3ccc(N4CCCN(S(=O)(=O)C5CC5)CC4)cc3n2)cc1Cl [Example 212, 3-(4-chloro-2-(7-(4-(cyclopropylsulfonyl)-1,4-diazepan-1-yl)imidazo[1,2-a]-pyridin-2-yl)-5-methoxyphenoxy)-N,N-dimethylpropan-1-amine]
HCT-116; [1]
  IC50: 8.6 µM
CCD-18Co; [2]
  IC50: 6 µM
PC14; [3]
  IC50: 4.2 µM
HFL1; [4]
  IC50: 5.8 µM
A549; [5]
  IC50: 8.1 µM
SUV39H2
  IC50: 0.0161 µM

## COc1cc(OC)c(-c2cn3ccc(N4CCN(S(=O)(=O)C5CC5)CC4)nc3n2)cc1Cl [Example 146, 2-(5-chloro-2,4-dimethoxyphenyl)-7-[4-(cyclopropylsulfonyl)piperazin-1-yl]imidazo[1,2-a]pyrimidine]
HCT-116; [1]
  IC50: 0.69 µM
CCD-18Co; [2]
  IC50: 4.2 µM
PC14; [3]
  IC50: 0.24 µM
HFL1; [4]
  IC50: 1.4 µM
A549; [5]
  IC50: 0.49 µM
SUV39H2
  IC50: 0.0247 µM

## COc1cc(OC)c(-c2cn3ccc(N4CCN(C(=O)OC(C)(C)C)C(C)C4)cc3n2)cc1Cl (stereo not drawn) [Example 275, tert-butyl 4-(2-(5-chloro-2,4-dimethoxyphenyl)imidazo[1,2-a]pyridin-7-yl)-2-methylpiperazine-1-carboxylate]
HCT-116; [6]
  IC50: 1.4 µM
CCD-18Co; [7]
  IC50: 1.4 µM
PC14; [8]
  IC50: 0.87 µM
HFL1; [9]
  IC50: 1.1 µM
A549; [10]
  IC50: 1.3 µM
SUV39H2
  IC50: 0.00333 µM

## COc1cc(OC)c(-c2cn3ccc(N4CCC(CO)CC4)cc3n2)cc1Cl [Example 41, (1-(2-(5-chloro-2,4-dimethoxyphenyl)imidazo[1,2-a]pyridine-7-yl)piperidin-4-yl)methanol]
HCT-116; [1]
  IC50: 3.5 µM
CCD-18Co; [2]
  IC50: 3.1 µM
PC14; [3]
  IC50: 2.8 µM
HFL1; [4]
  IC50: 2.9 µM
A549; [5]
  IC50: 3.2 µM
SUV39H2
  IC50: 0.0054 µM

## COc1cc(OC)c(-c2cn3ccc(N4CCN(c5ccccn5)CC4)cc3n2)cc1Cl [Example 276, 2-(5-chloro-2,4-dimethoxyphenyl)-7-(4-(pyridin-2-yl)piperazin-1-yl)-imidazo[1,2-a]pyridine]
HCT-116; [6]
  IC50: 0.71 µM
CCD-18Co; [7]
  IC50: 1.1 µM
PC14; [8]
  IC50: 1.2 µM
HFL1; [9]
  IC50: 0.69 µM
A549; [10]
  IC50: 1.2 µM
SUV39H2
  IC50: 0.00774 µM

## COc1cc(OC)c(-c2cn3ccc(N4CC[C@H](NCc5ccc([N+](=O)[O-])cc5)C4)cc3n2)cc1Cl [Example 304, (S)-1-(2-(5-chloro-2,4-dimethoxyphenyl)imidazo[1,2-a]pyridin-7-yl)-N-(4-nitrobenzyl)pyrrolidin-3-amine]
HCT-116; [6]
  IC50: 0.52 µM
CCD-18Co; [7]
  IC50: 0.49 µM
PC14; [8]
  IC50: 0.88 µM
HFL1; [9]
  IC50: 0.7 µM
A549; [10]
  IC50: 0.87 µM
SUV39H2
  IC50: 0.00888 µM

## COc1cc(OC)c(-c2cn3ccc(NC(=O)CCNC(=O)OC(C)(C)C)cc3n2)cc1Cl [Example 157, tert-butyl (3-{[2-(5-chloro-2,4-dimethoxyphenyl)imidazo[1,2-a]pyridin-7-yl]amino}-3-oxopropyl)carbamate]
HCT-116; [1]
  IC50: 6.8 µM
CCD-18Co; [2]
  IC50: 7.1 µM
PC14; [3]
  IC50: 6.2 µM
HFL1; [4]
  IC50: 4.7 µM
A549; [5]
  IC50: 7.5 µM
SUV39H2
  IC50: 0.0628 µM

## COc1cc(OCCCN(C)C)c(-c2cn3ccc(N4CCNCC4)nc3n2)cc1Cl [Example 186, 3-(4-chloro-5-methoxy-2-(7-(piperazin-1-yl)imidazo[1,2-a]pyrimidin-2-yl)phenoxy)-N,N-dimethylpropan-1-amine]
HCT-116; [1]
  IC50: 17 µM
CCD-18Co; [2]
  IC50: 35 µM
PC14; [3]
  IC50: 12 µM
HFL1; [4]
  IC50: 7.3 µM
A549; [5]
  IC50: 22 µM
SUV39H2
  IC50: 0.0619 µM

## COc1cc(OC)c(-c2cn3ccc(N4CCC[C@@H](N)C4)cc3n2)cc1Cl [Example 30, (R)-1-(5-chloro-2,4-dimethoxyphenyl)imidazo[1,2-a]pyridine-7-yl)piperidin-3-amine dihydrochloride]
HCT-116; [1]
  IC50: 5.1 µM
CCD-18Co; [2]
  IC50: 3.9 µM
PC14; [3]
  IC50: 2.3 µM
HFL1; [4]
  IC50: 2 µM
A549; [5]
  IC50: 3.4 µM
SUV39H2
  IC50: 0.009 µM

## COc1cc(OC)c(-c2cn3ccc(N4CCC(CCNC(=O)OC(C)(C)C)CC4)nc3n2)cc1Cl [Example 61, tert-butyl (2-{1-[2-(5-chloro-2,4-dimethoxyphenyl)imidazo[1,2-a]pyrimidin-7-yl]piperidin-4-yl}-ethyl)carbamate]
HCT-116; [1]
  IC50: 4.1 µM
CCD-18Co; [2]
  IC50: 4.3 µM
PC14; [3]
  IC50: 1.7 µM
HFL1; [4]
  IC50: 3.4 µM
A549; [5]
  IC50: 4.5 µM
SUV39H2
  IC50: 0.00831 µM

## COc1cc(OC)c(-c2cn3ccc(-c4ccc(C(=O)NCC5CCCN5)cc4)cc3n2)cc1Cl (stereo not drawn) [Example 248, 4-(2-(5-chloro-2,4-dimethoxyphenyl)imidazo[1,2-a]pyridin-7-yl)-N-(pyrrolidin-2-ylmethyl)benzamide]
HCT-116; [6]
  IC50: 2.3 µM
CCD-18Co; [7]
  IC50: 3.1 µM
PC14; [8]
  IC50: 2.6 µM
HFL1; [9]
  IC50: 5.7 µM
A549; [10]
  IC50: 4.6 µM
SUV39H2
  IC50: 0.0157 µM
